Results reported in US8906952B2, “Indole derivative or pharmaceutically acceptable salt thereof, preparation method thereof, and pharmaceutical composition for preventing or treating metabolic diseases containing same as active ingredient” (Korea Research Institute of Bioscience and Biotechnology, priority 2011, dated 2014).
Read-outs that look alike come from different tables or passages of the source.

Key:
Format in all cases: biochemical
[1] = biological target: T1, human DGAT1 (Homo sapiens, UniProt O75907); assay: DGAT enzyme inhibition test, hDGAT1 enzyme from sf9 insect cells; conditions: enzyme from sf9 cells overexpressing hDGAT1; read-out: hDGAT-1 (sf9) IC50
T1 construct: made in house; host or cells: sf9 insect cells
T1 sequence (O75907 1-488): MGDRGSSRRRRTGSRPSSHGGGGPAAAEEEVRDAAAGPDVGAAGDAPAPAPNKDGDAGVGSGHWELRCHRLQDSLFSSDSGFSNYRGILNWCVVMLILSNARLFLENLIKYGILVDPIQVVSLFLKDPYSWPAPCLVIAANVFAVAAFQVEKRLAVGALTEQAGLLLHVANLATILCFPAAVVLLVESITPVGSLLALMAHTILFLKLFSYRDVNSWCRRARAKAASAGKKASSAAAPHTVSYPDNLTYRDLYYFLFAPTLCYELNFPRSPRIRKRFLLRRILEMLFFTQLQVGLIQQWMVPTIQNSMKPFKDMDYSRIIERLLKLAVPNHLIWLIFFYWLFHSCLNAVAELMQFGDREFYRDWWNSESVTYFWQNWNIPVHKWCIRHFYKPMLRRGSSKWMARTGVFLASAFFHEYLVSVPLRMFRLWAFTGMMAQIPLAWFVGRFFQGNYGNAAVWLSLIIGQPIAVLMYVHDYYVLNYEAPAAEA
Summary of the method: (§1)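 Microsomes (100–200 μg) from sf9 cells overexpressing the human enzyme were incubated 10 min at 25 °C with compound in 175 mM Tris-HCl pH 8.0, 100 mM MgCl2, BSA, 30 μM [14C]palmitoyl-CoA and 200 μM 1,2-dioleoylglycerol. Extracted [14C]triacylglycerol was counted by LSC. Inhibition was calculated from treated, untreated and no-enzyme counts.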

[2] = biological target: T2, human DGAT2 (Homo sapiens, UniProt Q96PD7); assay: DGAT enzyme inhibition test, hDGAT2 enzyme from sf9 insect cells (DGAT2 selectivity)
T2 construct: made in house; host or cells: sf9 insect cells
T2 sequence (Q96PD7 1-388): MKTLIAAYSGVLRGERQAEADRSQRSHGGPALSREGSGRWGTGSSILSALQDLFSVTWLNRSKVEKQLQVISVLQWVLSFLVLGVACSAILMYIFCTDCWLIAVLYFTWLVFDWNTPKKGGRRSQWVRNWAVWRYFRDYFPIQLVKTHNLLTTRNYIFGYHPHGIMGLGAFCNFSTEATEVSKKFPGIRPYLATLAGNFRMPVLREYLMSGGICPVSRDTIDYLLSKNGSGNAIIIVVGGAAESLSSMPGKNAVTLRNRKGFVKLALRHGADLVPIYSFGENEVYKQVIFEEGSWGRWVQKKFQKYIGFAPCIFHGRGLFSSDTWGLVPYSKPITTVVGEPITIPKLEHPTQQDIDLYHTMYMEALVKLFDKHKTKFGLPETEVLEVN
Summary of the method: as §1

[3] = biological target: T3, DGAT-1 (rat liver) (Rattus norvegicus, UniProt Q9ERM3); assay: DGAT enzyme inhibition test, rat liver-derived DGAT enzyme; conditions: rat liver microsomal protein
T3 construct: microsomal protein isolated from rat; from tissue; host or cells: rat liver microsomes
T3 sequence (Q9ERM3 1-498): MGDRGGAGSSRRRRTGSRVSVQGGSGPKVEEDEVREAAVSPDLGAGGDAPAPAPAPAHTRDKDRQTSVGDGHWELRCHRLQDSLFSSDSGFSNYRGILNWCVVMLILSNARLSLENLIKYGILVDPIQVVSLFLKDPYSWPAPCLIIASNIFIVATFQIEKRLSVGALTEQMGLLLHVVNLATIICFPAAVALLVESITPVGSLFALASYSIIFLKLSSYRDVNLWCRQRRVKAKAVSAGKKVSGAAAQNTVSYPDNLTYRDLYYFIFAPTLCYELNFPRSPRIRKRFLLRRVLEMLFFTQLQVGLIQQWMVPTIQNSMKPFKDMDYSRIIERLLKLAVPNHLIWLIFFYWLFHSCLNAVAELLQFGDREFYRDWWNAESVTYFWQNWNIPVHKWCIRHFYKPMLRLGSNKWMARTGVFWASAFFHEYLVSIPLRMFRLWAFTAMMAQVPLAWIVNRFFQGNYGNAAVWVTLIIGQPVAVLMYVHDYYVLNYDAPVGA
Text: (§2) To investigate inhibitory effect of the compounds of Examples 1-33 against DGAT enzyme activity, DGAT enzyme inhibition and DGAT2 selectivity were investigated using zymogen including:
3) rat liver-derived DGAT enzyme.
(§3) To be specific, for the purpose of measuring human-derived DGAT enzyme inhibitory activity, using the zymogen, including enzymes derived from insect cell overexpressing human DGAT1 and DGAT2 (‘sf9’), microsomal protein isolated from human duodenal adenocarcinoma (‘Hutu 80’), and microsomal protein isolated from rat, and according to Coleman et al., (Methods Enzymol., 98-103, 1992), and substrate including 1,2-diacylglycerol(Sigma, D0138) and [^14C]palmitoyl-CoA (Amersham, CFA583), the amount of radiation of [^14C]triacylglycerol produced after enzymatic reaction was measured.
(§4) To be more specific, to the reaction solution containing 175 mM Tris-HCl (pH 8.0), 20 μl bovine serum albumin (10 mg/ml), 100 mM magnesium chloride, 30 μM [^14C]palmitoyl CoA (0.02 μCi, Amersham) and 200 μM 1,2-dioleoylglycerol, reagent dissolved in dimethylsulfoxide (10.0 μl) was added. After introducing 100 to 200 μg isolated microsomal protein and allowing the same to react at 25° C. for 10 min, the reaction was stopped by adding 1.5 ml stop solution (2-propanol:heptane:water=80:20:2, v:v:v). To isolate the product of the reaction (i.e., [^14C]triacylglycerol), 1 ml heptane and 0.5 ml distilled water were added and then decocted. After taking 1 ml supernatant, 2 ml alkaline ethanol solution (ethanol:0.5 N sodium hydroxide:water=50:10:40, v:v:v) were added and then decocted. After taking 0.65 ml supernatant from the decoction, the amount of radiation was measured with liquid scintillation counter (LSC). The DGAT inhibitory activity was calculated with Mathematical Expression 1 below:
(§5) T denotes cpm of experimental group in which the enzymatic reaction solution was treated with the sample,
(§6) C denotes cpm of control group in which the enzymatic reaction solution was not treated with the sample, and
(§7) B denotes cpm of control group treated with the sample without zymogen.

[4] = biological target: T4, hDGAT-1 (HuTu 80) (Homo sapiens, UniProt O75907); assay: DGAT enzyme inhibition test, microsomal protein from human duodenal adenocarcinoma (Hutu 80); conditions: microsomal protein from HuTu 80
T4 construct: microsomal protein isolated from human duodenal adenocarcinoma (‘Hutu 80’); endogenous in cells; host or cells: HuTu 80 human duodenal adenocarcinoma cells (microsomes)
T4 sequence (O75907 1-488): T1 sequence (O75907 1-488)
Text: as §2
2) DGAT enzyme derived from human duodenal adenocarcinoma (‘Hutu 80’), and
as §3, §4, §5, §6, §7

[5] = 10 μM, enzyme from sf9 cells overexpressing hDGAT2, read-out: hDGAT-2 (sf9) inhibition rate(%)at 10 μM
[6] = concentration of 10 μM, read-out: hDGAT2 inhibition

Row | Structure (SMILES) | IC50 [1] [µM] | inhibition at 10 µM [2, 5] [%] | IC50 [3] [µM] | IC50 [4] [µM] | inhibition at 10 µM [2, 6] [%]
1 | CC(=O)n1cc(/C=C/C(=O)N(NC(=O)c2ccccc2)C(C)C)c2ccccc21 [Example 30, (E)-N′-(3-(1-acetyl-1H-indol-3-yl)acryloyl)-N′-isopropylbenzohydrazide] | 65.3 | < 0 | 22.5 | 27 | –
2 | CC(C)N(NC(=O)c1ccccc1)C(=O)/C=C/c1cn(C(=O)C(C)(C)C)c2ccccc12 [Example 31, (E)-N′-isopropyl-N′-(3-(1-pivaloyl-1H-indol-3-yl)acryloyl)benzohydrazide] | 9.3 | 4.4 | 3.4 | 5.1 | < 11
3 | CC(C)N(NC(=O)c1ccccc1)C(=O)/C=C/c1cn(C(=O)c2ccccc2)c2ccccc12 [Example 32, (E)-N′-(3-(1-benzoyl-1H-indol-3-yl)acryloyl)-N′-isopropylbenzohydrazide] | 5.7 | 11 | 0.7 | 0.97 | < 11
4 | CC(C)N(NC(=O)c1ccccc1)C(=O)/C=C/c1cn(C(=O)CC(C)(C)C)c2ccccc12 [Example 33, (E)-N′-(3-(1-(3,3-dimethylbutanoyl)-1H-indol-3-yl)acryloyl)-N′-isopropylbenzohydrazide] | 5.3 | < 0 | 1.4 | 2.1 | < 11
